The values that follow come from patent US6713499B2, “7-Amino-benzothiazole derivatives” (Hoffman-La Roche Inc., priority 2001, dated 2004).

T1 sequence (P29274 whole entry): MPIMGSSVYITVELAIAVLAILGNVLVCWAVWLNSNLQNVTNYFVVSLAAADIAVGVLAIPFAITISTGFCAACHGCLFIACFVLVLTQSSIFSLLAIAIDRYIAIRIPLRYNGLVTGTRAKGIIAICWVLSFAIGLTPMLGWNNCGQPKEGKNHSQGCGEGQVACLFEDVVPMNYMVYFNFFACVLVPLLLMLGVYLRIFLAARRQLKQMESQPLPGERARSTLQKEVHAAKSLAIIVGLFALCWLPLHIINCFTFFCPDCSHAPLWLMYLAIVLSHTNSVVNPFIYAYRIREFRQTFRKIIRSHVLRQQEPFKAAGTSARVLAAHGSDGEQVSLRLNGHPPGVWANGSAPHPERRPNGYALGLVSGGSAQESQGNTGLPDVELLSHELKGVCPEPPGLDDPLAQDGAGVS

The first assay has as its target T1, human adenosine A2A receptor (Homo sapiens, UniProt P29274).
T1 construct: expressed in transfected cells; host or cells: CHO cells, Semliki Forest virus expression system; washed membrane pellet used
Put plainly: [3H]-SCH-58261 binding assay on membranes of CHO cells expressing the human adenosine A2A receptor. The note with it: [3H]-SCH-58261 (1 nM) displacement, CHO cell membranes, SPA beads, 1 hour at room temperature; Ki by Cheng-Prussoff equation. On the procedure: Human Adenosine A2A Receptor
The human adenosine A2A receptor was recombinantly expressed in chinese hamster ovary (CHO) cells using the semliki forest virus expression system. Cells were harvested, washed twice by centrifugation, homogenised and again washed by centrifugation. The final washed membrane pellet was suspended in a Tris (50 mM) buffer containing 120 mM NaCl, 5 mM KCl, 2 mM CaCl2 and 10 mM MgCl2 (pH 7.4) (buffer A). The [3H]-SCH-58261 (Dionisotti et al., 1997, Br J Pharmacol 121, 353; 1 nM) binding assay was carried out in 96-well plates in the presence of 2.5 μg of membrane protein, 0.5 mg of Ysi-poly-1-lysine SPA beads and 0.1 U adenosine deaminase in a final volume of 200 μl of buffer A. Non-specific binding was defined using xanthine amine congener (XAC; 2 μM). Compounds were tested at 10 concentrations from 10 μM-0.3 nM. All assays were conducted in duplicate and repeated at least two times. Assay plates were incubated for 1 hour at room temperature before centrifugation and then bound ligand determined using a Packard Topcount scintillation counter. IC50 values were calculated using a non-linear curve fitting program and Ki values calculated using, the Cheng-Prussoff equation.
As to `COc1ccc(N(C)C2CCOCC2)c2sc(NC(=O)c3ccnc(N4CCOCC4)c3)nc12` [Example 38, N-{4-Methoxy-4-[methyl-(tetrahydro-pyran-4-yl)-amino]-benzothiazol-2-yl}-2-morpholin-4-yl-isonicotinamide], the “hA2 (pKi)” value was 7.33.

Staying with this assay, now noted: [3H]-SCH-58261 (1 nM) displacement, CHO cell membranes, SPA beads, 1 hour at room temperature; Ki by Cheng-Prussoff equation; read-out: hA2 (pKi) (converted).
Take `COc1ccc(N(C)C2CCOCC2)c2sc(NC(=O)c3ccc(F)cc3)nc12` [Example 37, 4-Fluoro-N-{4-methoxy-7-[methyl-(tetrahydro-pyran-4-yl)-amino]-benzothiazol-2-yl}-benzamide]: the Ki is 0.0562 µM.

`COCCN(C)c1ccc(OC)c2nc(NC(=O)c3ccnc(N4CCOCC4)c3)sc12` [Example 6, N-{4-Methoxy-7-[(2-methoxy-ethyl)-methyl-amino]-benzothiazol-2-yl}-2-morpholin-4-yl-isonicotinamide]: the Ki was 0.0525 µM.

For `COc1ccc(N(C)Cc2ccccc2)c2sc(NC(=O)c3ccnc(C)c3)nc12` [Example 16, N-[7-(Benzyl-methyl-amino)-4-methoxy-benzothiazol-2-yl]-2-methyl-isonicotinamide], the Ki was 0.0155 µM.

In the case of `COc1ccc(N(C)CC(=O)N(C)C)c2sc(NC(=O)c3ccc(F)cc3)nc12` [Example 17, N-[7-(Dimethylcarbamoylmethyl-methyl-amino)-4-methoxy-benzothiazol-2-yl]-4-fluoro-benzamide], the Ki was 0.0603 µM.

With `COc1ccc(CN(C)c2ccc(OC)c3nc(NC(=O)c4ccc(F)cc4)sc23)cc1` [Example 28, 4-Fluoro-N-{4-methoxy-7-[(4-methoxy-benzyl)-methyl-amino]-benzothiazol-2-yl}-benzamide], the Ki is 0.049 µM.

In the case of `COCCN(C)c1ccc(OC)c2nc(NC(=O)c3ccccc3)sc12` [Example 1, N-{4-Methoxy-7-[(2-methoxy-ethyl)-methyl-amino]-benzothiazol-2-yl}-benzamide], the Ki was 0.0525 µM.

On to `COc1ccc(N(Cc2ccccc2)C(C)=O)c2sc(NC(=O)c3ccc(F)cc3)nc12` [Example 24, N-[7-(Acetyl-benzyl-amino)-4-methoxy-benzothiazol-2-yl]-4-fluoro-benzamide], for which the Ki is 0.0107 µM.

For `CCN(C(C)=O)c1ccc(OC)c2nc(NC(=O)c3ccc(F)cc3)sc12` [Example 21, N-[7-(Acetyl-ethyl-amino)-4-methoxy-benzothiazol-2-yl]-4-fluoro-benzamide], the Ki is 0.01 µM.

For the compound `COc1ccc(N(Cc2ccccc2)C(C)=O)c2sc(NC(=O)c3ccnc(Br)c3)nc12` [Example 25, N-[7-(Acetyl-benzyl-amino)-4-methoxy-benzothiazol-2-yl]-2-bromo-isonicotinamide], the Ki is 0.0525 µM.

As for `COc1ccc(N(C)C(C)=O)c2sc(NC(=O)c3ccc(F)cc3)nc12` [Example 19, N-[7-(Acetyl-methyl-amino)-4-methoxy-benzothiazol-2-yl]-4-fluoro-benzamide], the Ki is 0.0132 µM.

Consider `COCCN(C(C)=O)c1ccc(OC)c2nc(NC(=O)c3ccc(F)cc3)sc12` [Example 26, N-{7-[Acetyl-(2-methoxy-ethyl)-amino]-4-methoxy-benzothiazol-2-yl}-4-fluoro-benzamide], for which the Ki is 0.0178 µM.

Take `COc1ccc(CN(C)c2ccc(OC)c3nc(NC(=O)c4ccnc(C)c4)sc23)cc1` [Example 30, N-{4-Methoxy-7-[(4-methoxy-benzyl)-methyl-amino]-benzothiazol-2-yl}-2-methyl-isonicotinamide]: the Ki was 0.0263 µM.

As for `COCCN(C)c1ccc(OC)c2nc(NC(=O)c3ccc(F)cc3)sc12` [Example 2, 4-Fluoro-N-{4-methoxy-7-[(2-methoxy-ethyl)-methyl-amino]-benzothiazol-2-yl}-benzamide], the Ki was 0.038 µM.

`COc1ccc(N(Cc2ccc(C)cc2)C(C)=O)c2sc(NC(=O)c3ccccc3)nc12` [Example 10, N-{7-[Acetyl-(4-methyl-benzyl)-amino]-4-methoxy-benzothiazol-2-yl}-benzamide]: the Ki was 0.0115 µM.

On to `COc1ccc(N(C)Cc2ccccc2)c2sc(NC(=O)c3ccc(F)cc3)nc12` [Example 14, N-[7-(Benzyl-methyl-amino)-4-methoxy-benzothiazol-2-yl]-4-fluoro-benzamide], for which the Ki is 0.0389 µM.

With `CCN(CC(=O)N(C)C)c1ccc(OC)c2nc(NC(=O)c3ccc(F)cc3)sc12` [Example 20, N-[7-(Dimethylcarbamoylmethyl-ethyl-amino)-4-methoxy-benzothiazol-2-yl]-4-fluoro-benzamide], the Ki is 0.0617 µM.

On to `COc1ccc(N(C)Cc2ccccn2)c2sc(NC(=O)c3ccc(F)cc3)nc12` [Example 15, 4-Fluoro-N-[4-methoxy-7-(methyl-pyridin-2-ylmethyl-amino)-benzothiazol-2-yl]-benzamide], for which the Ki was 0.0617 µM.

Regarding `COc1ccc(N(C)Cc2ccccc2)c2sc(NC(=O)c3ccnc(N4CCOCC4)c3)nc12` [Example 35, N-[7-(Benzyl-methyl-amino)-4-methoxy-benzothiazol-2-yl]-2-morpholin-4-yl-isonicotinamide], the Ki is 0.011 µM.

`COc1ccc(N(C)Cc2ccccc2)c2sc(NC(=O)c3ccnc(Br)c3)nc12` [Example 32, N-[7-(Benzyl-methyl-amino)-4-methoxy-benzothiazol-2-yl]-2-bromo-isonicotinamide]: the Ki is 0.0331 µM.

For `COCCN(C)c1ccc(OC)c2nc(NC(=O)c3ccc(CCl)cc3)sc12` [Example 3, 4-Chloromethyl-N-{4-methoxy-7-[(2-methoxy-ethyl)-methyl-amino]-benzothiazol-2-yl}-benzamide], the Ki was 0.0372 µM.

`COc1ccc(N(C)C)c2sc(NC(=O)c3ccc(F)cc3)nc12` [Example 12, N-(7-Dimethylamino-4-methoxy-benzothiazol-2-yl)-4-fluoro-benzamide]: the Ki is 0.0741 µM.
